From patent publication US20140255392A1 (BAYER INTELLECTUAL PROPERTY GMBH, priority 2011, published 2014)

What follows are compounds tested against T1, human kinase Mps-1 (Homo sapiens, UniProt P33981) (assay: Mps-1 kinase assay (TR-FRET)). Settings: N-terminally GST-tagged human full length recombinant Mps-1; 10 μM ATP; 1 μM peptide substrate; 60 min at 22° C.
T1 construct: N-terminally GST-tagged human full length recombinant Mps-1 kinase; GST (N); purchased Invitrogen, Karslruhe, Germany PV4071
T1 sequence (P33981 1-857): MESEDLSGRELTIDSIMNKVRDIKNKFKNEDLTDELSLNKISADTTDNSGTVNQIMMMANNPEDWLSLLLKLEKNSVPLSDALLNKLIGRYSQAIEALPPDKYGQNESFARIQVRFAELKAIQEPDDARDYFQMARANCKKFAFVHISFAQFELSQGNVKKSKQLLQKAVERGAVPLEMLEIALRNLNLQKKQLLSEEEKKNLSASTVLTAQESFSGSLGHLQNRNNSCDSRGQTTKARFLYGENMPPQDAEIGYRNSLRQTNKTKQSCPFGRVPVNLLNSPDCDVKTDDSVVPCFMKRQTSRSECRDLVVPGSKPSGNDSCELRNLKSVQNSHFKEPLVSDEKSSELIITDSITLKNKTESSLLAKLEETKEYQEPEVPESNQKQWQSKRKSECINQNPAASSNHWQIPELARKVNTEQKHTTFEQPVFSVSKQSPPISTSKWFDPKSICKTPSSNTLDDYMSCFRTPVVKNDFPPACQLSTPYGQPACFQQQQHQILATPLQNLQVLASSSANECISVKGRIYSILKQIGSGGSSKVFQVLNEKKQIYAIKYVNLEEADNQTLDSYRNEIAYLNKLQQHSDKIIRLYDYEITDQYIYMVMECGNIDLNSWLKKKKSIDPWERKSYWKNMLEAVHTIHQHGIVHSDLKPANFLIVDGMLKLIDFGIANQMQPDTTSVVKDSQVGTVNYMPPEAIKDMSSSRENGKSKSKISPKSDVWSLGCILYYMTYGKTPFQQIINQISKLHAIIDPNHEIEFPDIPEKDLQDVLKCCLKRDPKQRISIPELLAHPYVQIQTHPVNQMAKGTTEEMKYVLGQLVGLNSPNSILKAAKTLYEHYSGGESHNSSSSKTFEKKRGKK
Type: biochemical
Outline: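 Inhibition of Mps-1 (N-terminal GST fusion, full length) toward a biotinylated peptide is read as Eu-to-XLent TR-FRET. Enzyme level, around 1 nM final, follows lot activity.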

Row | IC50 [nM] | Compound
1 | 21.7 | COCCNc1cc(Oc2cccc(F)c2)cn2c(-c3ccc(C(=O)NC4CC4)c(C)c3)cnc12 [Example 169, N-cyclopropyl-4-{6-(3-fluorophenoxy)-8-[(2-methoxyethyl)amino]imidazo[1,2-a]pyridin-3-yl}-2-methylbenzamide]
2 | 176 | COCCNc1cc(Oc2ccccc2C)cn2c(-c3ccc(C(=O)NC4CC4)c(C)c3)cnc12 [Example 170]
3 | 115 | COCCNc1cc(Oc2ccc(F)c(F)c2)cn2c(-c3ccc(C(=O)NC4CC4)c(C)c3)cnc12 [Example 171, N-cyclopropyl-4-{6-(3,4-difluorophenoxy)-8-[(2-methoxyethyl)amino]imidazo[1,2-a]pyridin-3-yl}-2-methylbenzamide]
4 | 77.8 | COCCNc1cc(Oc2cc(F)ccc2C)cn2c(-c3ccc(C(=O)NC4CC4)c(C)c3)cnc12 [Example 172]
5 | 8.2 | COCCNc1cc(Oc2cccc(F)c2F)cn2c(-c3ccc(C(=O)NC4CC4)c(C)c3)cnc12 [Example 173, N-cyclopropyl-4-{6-(2,3-difluorophenoxy)-8-[(2-methoxyethyl)amino]imidazo[1,2-a]pyridin-3-yl}-2-methylbenzamide]
6 | 816 | COCCNc1cc(C(=O)c2cc(F)ccc2O)cn2c(-c3ccc(C(=O)NC4CC4)c(C)c3)cnc12 [Example 174, N-cyclopropyl-4-{6-(5-fluoro-2-hydroxybenzoyl)-8-[(2-methoxyethyl)amino]imidazo[1,2-a]pyridin-3-yl}-2-methylbenzamide]
7 | 3 | Cc1cc(-c2cnc3c(NCCC(F)(F)F)cc(Oc4cc(F)ccc4O)cn23)ccc1C(=O)NC1CC1 [Example 175, N-cyclopropyl-4-{6-(5-fluoro-2-hydroxyphenoxy)-8-[(3,3,3-trifluoropropyl)amino]imidazo[1,2-a]pyridin-3-yl}-2-methylbenzamide]
8 | 1.8 | Cc1cc(-c2cnc3c(NCCC(F)(F)F)cc(Oc4cccc(F)c4O)cn23)ccc1C(=O)NC1CC1 [Example 176, N-cyclopropyl-4-{6-(3-fluoro-2-hydroxyphenoxy)-8-[(3,3,3-trifluoropropyl)amino]imidazo[1,2-a]pyridin-3-yl}-2-methylbenzamide]
9 | 20.4 | Cc1cc(-c2cnc3c(NCCC(F)(F)F)cc(Oc4cncc(F)c4)cn23)ccc1C(=O)NC1CC1 [Example 177, N-cyclopropyl-4-{6-[(5-fluoropyridin-3-yl)oxy]-8-[(3,3,3-trifluoropropyl)amino]imidazo[1,2-a]pyridin-3-yl}-2-methylbenzamide]
10 | 2.2 | COc1ncc(Oc2cc(NCCC(F)(F)F)c3ncc(-c4ccc(C(=O)NC5CC5)c(C)c4)n3c2)cc1F [Example 178, N-cyclopropyl-4-{6-[(5-fluoro-6-methoxypyridin-3-yl)oxy]-8-[(3,3,3-trifluoropropyl)amino]imidazo[1,2-a]pyridin-3-yl}-2-methylbenzamide]
11 | 4.6 | N-cyclopropyl-4-{8-[(2,2-difluoroethyl)amino]-6-(2,5-difluorophenoxy)imidazo[1,2-a]pyridin-3-yl}-2-methylbenzamide [Example 166]
12 | 279 | tert-butyl {3-[4-(cyclopropylcarbamoyl)-3-methylphenyl]-6-(2-hydroxybenzoyl)imidazo[1,2-a]pyridin-8-yl}(2,2-difluoroethyl)carbamate [Example 168]
